Measurements taken from PubChem BioAssay AID1963854 (Molecular Pharmacology Branch, DTP, NCI, 2024).
Values joined by “and” are separate entries in the source; they are usually repeats but may differ in a detail not shown here. Equal values may be shown once.

System: 186277-243-T-J2-PDC complex spheroid viability
Assay: Anticancer human tumor 186277-243-T-J2-PDC patient-derived colon adenocarcinoma cell line growth inhibition [POLQ]
Settings: for viability, T/C: stronger effect = lower value
Method: Multicellular complex tumor spheroid response to Polymerase (POL) inhibitors (novobiocin, ART-558, RP6685) in combination with a variety of drugs and investigational agents in selected tumor cell lines
The POL inhibitors (novobiocin, ART-558, and RP6685) were evaluated both individually and in combination with standard of care and investigational anticancer small molecules within a complex spheroid model of solid tumors. . Complex spheroids include a stromal component modeled by human endothelial cells (HUVEC) and fibroblasts modeled by human mesenchymal stem cells (MSCs). The concentration ranges selected for each drug and investigational agent were based upon clinically achievable concentrations if the clinical Cmax of the agent was known.
Compounds. The drugs and investigational agents: novobiocin (NSC847541), ART-558 (NSC835418), RP-6685 (NSC848927), peposertib (NSC802822), ceralasertib (NSC780249), elimusertib (NSC800525), camonsertib (NSC841442), AZD-1390 (NSC803789), olaparib (NSC753686), talazoparib (NSC767125), rucaparib (NSC756644), sotorasib (NSC818433), MRTX-1133 (NSC836407), SN-38 (NSC673596), topotecan (NSC609699), epotoside (NSC141540), doxorubicin (NSC123127), gemcitabine (NSC613327), 5-fluorouracil (NSC19893), paclitaxel (NSC125973), vemurafenib (NSC761431), MSA-2 (NSC828583), SN-011 (NSC837082), adavosertib (NSC754352), prexasertib (NSC758257), carboplatin (NSC241240) and oxaliplatin (NSC266046), were obtained from the National Cancer Institute (NCI) Developmental Therapeutics Program Chemical Repository (21). The FDA-approved anticancer drug set is available from the Developmental Therapeutics Program at https://dtp.cancer.gov/organization/dscb/obtaining/. […] The stock solutions were prepared in dimethyl sulfoxide (DMSO, Sigma-Aldrich, St. Louis, MO, cat. D2650), except for the platinum compounds which were prepared in saline (Quality Biological, Gaithersburg, MD, cat. 114-055-101), at 800-fold the tested concentration and stored at -70 degrees C prior to their use. All drugs and investigational agents were tested over a range starting from a high concentration at or near the clinical Cmax and decreasing in half-log increments. If the clinical Cmax for an agent had not been determined, the highest concentration tested was 10 microM, except for SN-38, which was tested at a high concentration of 1 microM.
Cell Culture. All cells were maintained in an incubator at 37 degrees C and 5% CO2 with 95% humidity. The PDC lines were cultured according to standard operating procedures established by the NCI PDMR (https://pdmr.cancer.gov). Table 3 of the manuscript, lists the cell lines along with the number of the three cell types plated to form the mct-spheroids and media for tumor cell growth. After thawing, all PDC lines, except 997537-175-T-J1-PDC and 415267-285-R-J2-PDC, were cultured in Matrigel-coated flasks prepared with a working solution of 1X Ham's F-12 nutrient mix, without supplementation (Thermo Fisher Scientific, cat. 11765054), 100 U/mL penicillin-streptomycin (Thermo Fisher Scientific, cat. 15140122), and 2.5% Matrigel (Corning Inc., Corning, NY, cat. 354248) for the first three passages. The two PDC lines 997537-175-T-J1-PDC and 415267-285-R-J2-PDC were cultured on uncoated flasks. The 857933-349-R-J2-PDC line was cultured in 6C/Colon 1B media containing advanced DMEM/F-12 (Thermo Fisher Scientific, cat. 12634028), 10 mM HEPES (Thermo Fisher Scientific, cat. 15630080), 1X GlutaMAX supplement (Thermo Fisher Scientific, cat. 35050061), 0.1 mg/mL primocin (InvivoGen, San Diego, CA, cat. ant-pm-2), 10% defined fetal bovine serum, heat inactivated (HyClone Laboratories Inc., Logan, UT, cat. SH30070.03HI), 50% L-WRN conditioned media (ATCC, cat. CRL-3276), 1.25 mM N-Acetyl-L-cysteine (Sigma-Aldrich, cat. A9165), 10 mM nicotinamide (Sigma-Aldrich, cat. N0636), 1X B-27 supplement (Thermo Fisher Scientific, cat. 17504044), 1X N-2 supplement (Thermo Fisher Scientific, cat. […]

[1] = curve of first compound, second compound 0.0316 µM
[2] = curve of first compound, second compound 0.1 µM
[3] = curve of first compound, second compound 0.316 µM
[4] = curve of first compound, second compound 1 µM
[5] = curve of first compound, second compound 3.16 µM
[6] = curve of first compound, second compound 10 µM
[7] = second compound 0.0316 µM, first compound 0.0316 µM
[8] = second compound 0.0316 µM, first compound 0.1 µM
[9] = second compound 0.1 µM, first compound 0.0316 µM
[10] = second compound 0.1 µM, first compound 0.1 µM
[11] = second compound 0.316 µM, first compound 0.0316 µM
[12] = second compound 0.316 µM, first compound 0.1 µM
[13] = second compound 1 µM, first compound 0.0316 µM
[14] = second compound 1 µM, first compound 0.1 µM
[15] = second compound 3.16 µM, first compound 0.0316 µM
[16] = second compound 3.16 µM, first compound 0.1 µM
[17] = second compound 10 µM, first compound 0.0316 µM
[18] = second compound 10 µM, first compound 0.1 µM
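Also: spheroids exposed to compounds for seven days.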
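For viability, T/C in this document: 100% = DMSO vehicle control viability.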

Cn1ncnc1[C@H]1c2n[nH]c(=O)c3cc(F)cc(c23)N[C@@H]1c1ccc(F)cc1 + COC1C(OC(N)=O)C(O)C(Oc2ccc3c(O)c(NC(=O)c4ccc(O)c(CC=C(C)C)c4)c(=O)oc3c2C)OC1(C)C
IC50 [1]: > 0.1 µM
IC50 [2]: > 0.1 µM
IC50 [3]: > 0.1 µM
IC50 [4]: > 0.1 µM
IC50 [5]: > 0.1 µM
IC50 [6]: > 0.1 µM
viability, T/C (second compound 0.0316 µM, first compound 0.000316 µM): 96.7%
viability, T/C (second compound 0.0316 µM, first compound 0.001 µM): 93%
viability, T/C (second compound 0.0316 µM, first compound 0.00316 µM): 114%
viability, T/C (second compound 0.0316 µM, first compound 0.01 µM): 112%
viability, T/C [7]: 119%
viability, T/C [8]: 105%
viability, T/C (second compound 0.1 µM, first compound 0.000316 µM): 103%
viability, T/C (second compound 0.1 µM, first compound 0.001 µM): 110%
viability, T/C (second compound 0.1 µM, first compound 0.00316 µM): 103%
viability, T/C (second compound 0.1 µM, first compound 0.01 µM): 106%
viability, T/C [9]: 116%
viability, T/C [10]: 108%
viability, T/C (second compound 0.316 µM, first compound 0.000316 µM): 101%
viability, T/C (second compound 0.316 µM, first compound 0.001 µM): 111%
viability, T/C (second compound 0.316 µM, first compound 0.00316 µM): 111%
viability, T/C (second compound 0.316 µM, first compound 0.01 µM): 105%
viability, T/C [11]: 114%
viability, T/C [12]: 108%
viability, T/C (second compound 1 µM, first compound 0.000316 µM): 84.4%
viability, T/C (second compound 1 µM, first compound 0.001 µM): 110%
viability, T/C (second compound 1 µM, first compound 0.00316 µM): 108%
viability, T/C (second compound 1 µM, first compound 0.01 µM): 98.3%
viability, T/C [13]: 118%
viability, T/C [14]: 102%
viability, T/C (second compound 3.16 µM, first compound 0.000316 µM): 92.4%
viability, T/C (second compound 3.16 µM, first compound 0.001 µM): 106%
viability, T/C (second compound 3.16 µM, first compound 0.00316 µM): 107%
viability, T/C (second compound 3.16 µM, first compound 0.01 µM): 117%
viability, T/C [15]: 128%
viability, T/C [16]: 100%
viability, T/C (second compound 10 µM, first compound 0.000316 µM): 96.2%
viability, T/C (second compound 10 µM, first compound 0.001 µM): 106%
viability, T/C (second compound 10 µM, first compound 0.00316 µM): 110%
viability, T/C (second compound 10 µM, first compound 0.01 µM): 101%
viability, T/C [17]: 109%
viability, T/C [18]: 104%

CCc1cc2c(N3CCc4c(cc(Cn5ccnc5)cc4-c4cn(C)nc4C(F)(F)F)C3=O)cc(C)nc2c(OC)n1
viability, T/C (compound 0.0316 µM): 100% and 88.7% and 82.3%
viability, T/C (compound 0.1 µM): 110% and 93% and 96.3%
viability, T/C (compound 0.316 µM): 101% and 96.8% and 86.6%
viability, T/C (compound 1 µM): 104% and 106% and 86.8%
viability, T/C (compound 3.16 µM): 86% and 109% and 103%
viability, T/C (compound 10 µM): 76.3% and 99.6% and 88.1%
IC50 (curve of compound): > 10 µM

C=CCn1c(=O)c2cnc(Nc3ccc(N4CCN(C)CC4)cc3)nc2n1-c1cccc(C(C)(C)O)n1
viability, T/C (compound 0.00316 µM): 95.7% and 86.8% and 99.2%
viability, T/C (compound 0.01 µM): 96% and 97.5% and 95.8%
viability, T/C (compound 0.0316 µM): 97.8% and 104% and 94.2%
viability, T/C (compound 0.1 µM): 93.9% and 91.6% and 113%
viability, T/C (compound 0.316 µM): 13.8% and 27.6% and 28.5%
viability, T/C (compound 1 µM): 7.74% and 14.5% and 12.9%
IC50 (curve of compound): 0.188 µM and 0.211 µM and 0.224 µM

CC1COCCN1c1cc(-c2ccnn2C)c2ccnc(-c3ccn[nH]3)c2n1 (stereo not drawn) + COC1C(OC(N)=O)C(O)C(Oc2ccc3c(O)c(NC(=O)c4ccc(O)c(CC=C(C)C)c4)c(=O)oc3c2C)OC1(C)C
IC50 [1]: 0.0426 µM
IC50 [2]: 0.0458 µM
IC50 [3]: 0.0456 µM
IC50 [4]: 0.0474 µM
IC50 [5]: 0.0428 µM
IC50 [6]: 0.0512 µM
viability, T/C [7]: 63.9%
viability, T/C [8]: 10.3%
viability, T/C (second compound 0.0316 µM, first compound 0.316 µM): 4.76%
viability, T/C (second compound 0.0316 µM, first compound 1 µM): 4.28%
viability, T/C (second compound 0.0316 µM, first compound 3.16 µM): 3.3%
viability, T/C (second compound 0.0316 µM, first compound 10 µM): 3.81%
viability, T/C [9]: 68.6%
viability, T/C [10]: 10.9%
viability, T/C (second compound 0.1 µM, first compound 0.316 µM): 4.88%
viability, T/C (second compound 0.1 µM, first compound 1 µM): 3.51%
viability, T/C (second compound 0.1 µM, first compound 3.16 µM): 2.82%
viability, T/C (second compound 0.1 µM, first compound 10 µM): 3.8%
viability, T/C [11]: 67.6%
viability, T/C [12]: 12.2%
viability, T/C (second compound 0.316 µM, first compound 0.316 µM): 4.58%
viability, T/C (second compound 0.316 µM, first compound 1 µM): 3.36%
viability, T/C (second compound 0.316 µM, first compound 3.16 µM): 2.79%
viability, T/C (second compound 0.316 µM, first compound 10 µM): 3.64%
viability, T/C [13]: 71%
viability, T/C [14]: 11.4%
viability, T/C (second compound 1 µM, first compound 0.316 µM): 5.31%
viability, T/C (second compound 1 µM, first compound 1 µM): 3.57%
viability, T/C (second compound 1 µM, first compound 3.16 µM): 3.29%
viability, T/C (second compound 1 µM, first compound 10 µM): 4.22%
viability, T/C [15]: 63.9%
viability, T/C [16]: 11.1%
viability, T/C (second compound 3.16 µM, first compound 0.316 µM): 4.98%
viability, T/C (second compound 3.16 µM, first compound 1 µM): 3.47%
viability, T/C (second compound 3.16 µM, first compound 3.16 µM): 4.1%
viability, T/C (second compound 3.16 µM, first compound 10 µM): 3.47%
viability, T/C [17]: 77.8%
viability, T/C [18]: 11.6%
viability, T/C (second compound 10 µM, first compound 0.316 µM): 5.41%
viability, T/C (second compound 10 µM, first compound 1 µM): 3.59%
viability, T/C (second compound 10 µM, first compound 3.16 µM): 4.37%
viability, T/C (second compound 10 µM, first compound 10 µM): 3.76%
